Source: paper PMC5104769, “Concentration-Dependent Dual Mode of Zn Action at Serotonin 5-HT1A Receptors: In Vitro and In Vivo Studies” (Molecular neurobiology, 2015)

How the values were obtained:
Sprague Dawley rats = assay: Forced swim test (FST) in rats; assay type: in vivo, rat
Protocol: The test was carried out according to the method described previously [10]. On day one of the experiment, the animals were individually placed in plexiglass cylinders (40 cm in height, 18 cm in diameter), containing 25 cm of water maintained at 24–25 °C for a 15-min habituation period. After the rats were removed from the water, they were again placed in their home cages. On the second day, the rats were again placed in the cylinders, and the total duration of immobility was measured for a 5-min test period. Zn (1 or 2 mg Zn/ kg, given as Zn hydroaspartate) and 8-OH-DPAT (0.1 or 0.3 mg/kg) were administered alone or jointly 30 min before the test. WAY-100635 (0.1 mg/kg) was administered 15 min before the Zn treatment.

5-HT3 receptor = system: 5-HT3 receptor; design: method as in PMID 7620711; settings: electrophysiology, cited from earlier work

In the case of `[Zn+2]` [Zn, Zinc], the “immobility time in the FST” value (Sprague Dawley rats; Zn 1 mg/kg, 30 min before test (Fig. 5a)) is reported as “not 1 mg/kg significantly decreased the immobility time”, the “immobility time in the FST” value (Sprague Dawley rats; Zn 2 mg/kg, 30 min before test (Fig. 5a)) is reported as “significantly decreased the immobility time” and the “immobility time in the FST” value (Sprague Dawley rats; Zn 2 and 5 mg/kg (Fig. 5b)) is reported as “significantly decreased the immobility time”. The “immobility time in the FST” value (Sprague Dawley rats; Zn given jointly with 8-OH-DPAT at doses ineffective alone, vs VEH) was “significantly decreased the immobility time”, the “Zn concentrations that depressed the 5-HT-induced response” value (5-HT3 receptor; high concentrations) was 30 to 200 µM and the “Zn concentrations that enhanced the 5-HT-induced response” value (5-HT3 receptor; low concentrations) was 0.3 to 10 µM.
